What is called melting point is the temperature of the solid-liquid transition. A word on the boiling point: it is the temperature of boiling at a given pressure.

`CCCCC(=O)O[C@]1(C(=O)CO)CC[C@H]2[C@@H]3CCC4=CC(=O)CC[C@]4(C)[C@H]3[C@@H](O)C[C@@]21C` registered a melting point of 218 °C.
Still for that read-out and setting: the figure for `Cc1c(C2(c3cc(C(C)C)c(O)c(Br)c3C)OS(=O)(=O)c3ccccc32)cc(C(C)C)c(O)c1Br` is 201 °C.
As for `N#CCCCCl`, the boiling point is 192 °C.
`c1ccc(N2CN(c3ccccc3)CN(c3ccccc3)C2)cc1` registered a melting point of 144 °C.
As to `CN1CCN(C2=Nc3ccccc3Cc3ccccc32)CC1`, the melting point worked out at 137 °C.
Same read-out and setting: then `O=C(O)Cc1c[nH]c2ccccc12`, with 168 °C.
For the molecule `CCC(=O)c1cccc(C)c1`, the boiling point came out at 235 °C.
`N#Cc1ccc(N)cc1` yielded a melting point of 84 °C.
`CCC(C)=C(C)C(C)=O` yielded a boiling point of 158 °C.
Molecule `C#Cc1ccccc1` showed a boiling point of 143 °C, a log10 vapour pressure (mmHg) of 0.314 and a melting point of -44.8 °C.
Consider `CN(C)c1ccccc1C(=O)O`, for which the melting point came to 72 °C.
On to `CC1CCC2C(=O)OC(=O)C2C1` (stereo unspecified), for which the ready biodegradability entry is recorded as “not readily biodegradable”.
Take `O=C(O)c1ccc[nH]1`: the log10 vapour pressure (mmHg) is -5.65.
Molecule `CC1CCC(C)C1` (stereo unspecified) registered a log10 biodegradation half-life (days) of 0.602.
Consider `Cc1cnc2ccccc2c1`, for which the boiling point turned out to be 260 °C and the melting point worked out at 16.5 °C.
For `CCCCCCCCCCCCCCCCCCBr`, the log10 vapour pressure (mmHg) was -5.23 and the melting point was 28.2 °C.
On to `CC(=O)c1c[nH]c2ccccc12`, for which the melting point was found to be 192 °C.
`Cc1cc(C)c(O)cc1C`: the boiling point is 232 °C, the log10 vapour pressure (mmHg) is -2.17 and the melting point was 72 °C.
Taken in the same sequence, the figures for `CCCCCCCCCCCCC(=O)O` were 312 °C, -4.9 and 44.5 °C.
`COc1ccc(C(=O)c2ccc(OC)cc2O)c(O)c1`: the melting point stood at 140 °C.
Still for that read-out and setting: the figure for `CCCCCCCCCCCCCCCC(=O)OC/C=C(C)/C=C/C=C(C)/C=C/C1=C(C)CCCC1(C)C` is 28.5 °C.
As for `CCCCCCCCCCCCCCCC(=O)O`, the boiling point worked out at 352 °C, the log10 vapour pressure (mmHg) was -6.42, the melting point is 61.8 °C and the ready biodegradability entry is reported as “readily biodegradable”.
The molecule `Clc1cc(Cl)c2nsnc2c1Cl` had a melting point of 122 °C.
In turn, `CCC(C)(Cl)Cl` came in with a boiling point of 104 °C and a melting point of -74 °C.
Consider `CC(C)c1ccc(C(=O)O)cc1`, for which the melting point was found to be 118 °C and the ready biodegradability entry was “readily biodegradable”.
Molecule `NC1CCCC1` showed a boiling point of 108 °C and a melting point of -82.7 °C.
Regarding `CCCCCSSCCCCC`, the log10 vapour pressure (mmHg) was -2.2.
`C=CCCCCCCCCCC`: the boiling point worked out at 214 °C, the log10 vapour pressure (mmHg) was -0.797 and the melting point was -35.2 °C.
Take `Cc1cccc(Nc2ccccc2C(=O)O)c1C`: the melting point came out at 230 °C.
Consider `CC12CCC(C(=O)C1=O)C2(C)C` (racemic), for which the melting point was determined as 199 °C.
For the molecule `Clc1cc(Cl)c(-c2c(Cl)cc(Cl)cc2Cl)c(Cl)c1`, the log10 Koa stood at 8.99, the log10 Koc (L/kg) was 6.08 and the log10 vapour pressure (mmHg) was -4.92.
As to `CCC(C)c1cc([N+](=O)[O-])cc([N+](=O)[O-])c1OC(=O)OC(C)C` (stereo unspecified), the melting point amounted to 61 °C.
Regarding `CCCCCCCCCC(=O)OCC`, the boiling point stood at 242 °C and the melting point was -20 °C.
In the case of `CCC(=O)c1cc(O)ccc1O`, the melting point was 96.5 °C.
In turn, `C#CCCl` returned a boiling point of 58 °C.
`OC(C(F)(F)F)C(F)(F)F` had a boiling point of 59 °C, a log10 Henry constant (atm·m³/mol) of -4.37, a log10 vapour pressure (mmHg) of 2.2 and a melting point of -4 °C. Also, the ready biodegradability entry is given as “not readily biodegradable”.
In turn, `C[C@]12CC[C@H]3C(=CCc4cc(O)ccc43)[C@@H]1CC[C@@H]2O` yielded a melting point of 174 °C.
In the case of `CC1CCCCC1(C)C` (stereo unspecified), the boiling point is 145 °C and the melting point was -29 °C.
In turn, `CCCCCc1ccc(C)cc1O` displayed a melting point of 24 °C.
As to `CC(F)(F)C(F)(F)F`, the boiling point is -17.4 °C and the log10 vapour pressure (mmHg) was found to be 3.54.
As for `C=CCC1(C2C=CCCC2)C(=O)NC(=S)NC1=O` (stereo unspecified), the melting point was found to be 149 °C.
`C=C1CC[C@H]2O[C@]2(C)CC[C@@H]2[C@@H]1CC2(C)C` yielded a melting point of 62.5 °C.
`CCSCC(=O)O` returned a melting point of -8.5 °C.
`CON=C(C)c1cccc(Oc2nc(OC)cc(OC)n2)c1C(=O)OC`: the log10 vapour pressure (mmHg) is -6.64 and the melting point is 107 °C.
Turning to `O=S1(=O)CCCCO1`, the melting point is 13.5 °C.
`N#Cc1cc([N+](=O)[O-])c(Cl)c([N+](=O)[O-])c1` gave a melting point of 141 °C.
In turn, `CCSC(=O)N1CCCCCC1` showed a log10 Henry constant (atm·m³/mol) of -5.39, a log10 Koc (L/kg) of 1.92 and a log10 vapour pressure (mmHg) of -2.25.
For `Cc1ccc2[nH]ccc2c1`, the boiling point is 267 °C and the melting point came out at 60 °C.
Molecule `Nc1c(Br)cccc1Br` returned a boiling point of 263 °C and a melting point of 87.5 °C.
`CCC(C)CCBr` (stereo unspecified) displayed a boiling point of 148 °C.
`c1cc(OCC2CO2)cc(OCC2CO2)c1` (stereo unspecified) gave a melting point of 42.5 °C.
Same read-out and setting: then `CC(C)NCC(O)COc1ccc(CCOCC2CC2)cc1` (stereo unspecified), with 71 °C.
On the same count and under the same terms, the figure for `CCOc1ccc2cc(O)c(O)cc2c1` is 132 °C.
For the molecule `FC(F)(F)C(F)(F)C(F)(F)C(F)(F)C(F)(F)C(F)(F)C(F)(F)I`, the boiling point was found to be 138 °C.
Consider `COc1ccc(COC(C)=O)cc1`, for which the boiling point worked out at 270 °C and the melting point was found to be 84 °C.

The values are drawn from the OPERA property sets (Mansouri et al. 2018).
